Where two headings read alike, the source gives them in different places.
Tests used:
KCNQ2 [1] = biological target: T1, KCNQ2 (Rattus norvegicus, UniProt O88943); assay: Whole-cell voltage clamp of CHO cells expressing KCNQ2; format: cell-based; set-up: expressed in transfected cells; host or cells: CHO cells; conditions: for effect on KCNQ2 current amplitude of metal salt added to sodium pyrithione perfusion: metal salt (ZnSO4 10 μM) supplemented to 20 μM sodium pyrithione
Experimental: Cell culture and transient transfection—Chinese Hamster Ovary (CHO) cells were grown in 50/50 DMEM/F12 (Cellgro) with 10% FBS (Gibco), 100 U/ml penicillin (Cellgro), 100 μg/ml streptomycin (Cellgro) and 2 mM L-glutamine (Gibco). At 24 hours before transfection, cells were split and plated in 60 mm dishes and were transfected with Lipofectamine2000™ reagent (Invitrogen) according to the manufacturer's instruction. At 24 hours after transfection, cells were split and re-plated onto coverslips coated with poly-L-lysine (Sigma). Plasmid expressing CD4 cDNA as a marker was cotransfected with the channel cDNAs of hKCNQ1 (from Dr. Michael Sanguinetti), hKCNQ4 (from Dr. Vitya Vardanyan), rKCNQ2, rKCNQ3, and hKCNQ5 (from Drs. David McKinnon, Mark Shapiro, and Thomas Jentsch). Prior to recording, anti-CD4 Dynabeads (Dynal. Biotech. Inc.) were added into the medium to allow for identification of the transfected cells. Stable lines expressing Kv2.1, hERG, and Kv4.2 were generated by standard protocols using pcDNA3.1 and maintained at complete medium supplemented with 500 μg/ml G418. The N-type calcium channel stable line was a kind gift from Drs. Diane Lipscombe and David Yue.
(§1) Electrophysiological Recording—Standard whole-cell recording was used. Pipettes were pulled from borosilicate glass capillaries (TW150-4, World Precision Instruments, Sarasota, Fla.). When filled with the intracellular solution, the pipettes have resistances of […]. During the recording, constant perfusion of extracellular solution was maintained using a BPS perfusion system (ALA, Westbury, N.Y.). Pipette solution contained (mM): KCl 145, MgCl2 1, EGTA 5, HEPES 10, MgATP 5 (pH 7.3); extracellular solution contained (mM): NaCl 140, KCl 3, CaCl2 2, MgCl2 1.5, HEPES 10, glucose 10 (pH 7.4). Current and voltage were recorded using an Axopatch-200A amplifier, filtered at 1 kHz and digitized using a DigiData 1322A with pClamp 9.2 software (Axon Instruments, Foster City, Calif.). Series resistance compensation was also used and set to 60-80%.
Data and Statistical Analysis—Patch-clamp data were preprocessed using Clampfit 9.2 (Axon Instruments, Foster City, Calif.) and then analyzed in Origin 7 (OriginLab, Northampton, Mass.). The activation curve was fitted by the Boltzmann equation: G=(Gmax−Gmin)/[1+exp[(V−V1/2)/S]]+Gmin, where Gmax is the maximum conductance, Gmin is the minimum conductance, V1/2 is the voltage for half of the total numbers of channels to open, and S is the slope factor. The dose response curve was fitted by the Hill equation: E=Emax/(1+(EC50/C)^P), where Emax is the maximum response, C is the drug concentration, EC50 is the drug concentration producing half of the maximum response, and P is the Hill coefficient. The deactivation trace was fitted by the standard exponential equation: I(t)=ΣIi*exp(−t/τi), where I is the current, t is the time and τ is the time constant. Data are presented as means±SE. Significance was estimated using paired two-tailed Student's t-test.

TRPM8 = TRPM8 (Homo sapiens, UniProt Q7Z2W7); conditions: shift from 32 mV; cited from earlier work
KCNQ2(A306T) = biological target: T2, KCNQ2(A306T) (Rattus norvegicus, UniProt O88943, A306T); assay: Whole-cell recording of KCNQ2(A306T) mutant in CHO cells; format: cell-based; conditions: retigabine
T2 construct: expressed in transfected cells; host or cells: CHO cells
Experimental: FIG. 9. KCNQ2 point mutants selectively lose ZnPy sensitivity. […] Each mutation site was indicated based on the predicted transmembrane regions. Dashed line indicates the potentiation level of wt KCNQ2 channel in the absence of ZnPy. […] C. Modeling of the S5-pore-S6 region of KCNQ2.
(§2) FIG. 11. ZnPy effects on BFNC mutant channels expressed in CHO cells. A. whole-cell currents of KCNQ2(R207W), KCNQ2(Y284C), and KCNQ2(A306T) were recorded in the absence (left) and presence (right) of 10 μM ZnPy, Vh was −80 mV, in 10 mV voltage steps from −70 mV to +50 mV. B. a histogram plotting potentiation effects on KCNQ2 wild type (wt) and BFNC mutants (R207W, Y284C and […]) by ZnPy (filled box) and retigabine (open box) (n≧4, * p<0.001, ** p<0.05).
(§3) Mutagenesis—Starting from KCNQ cDNAs, the KCNQ2 point mutants were constructed by recombinant PCR and verified by sequencing.
as §1

KCNQ2(R207W) = biological target: T3, KCNQ2(R207W) (Rattus norvegicus, UniProt O88943, R207W); assay: Whole-cell recording of KCNQ2(R207W) BFNC mutant in CHO cells; format: cell-based; conditions: retigabine
T3 construct: expressed in transfected cells; host or cells: CHO cells, transient
Experimental: as §2, §3
as §1, with “Series resistance compensation was also used and set to 60-80%.” left out

KCNQ2(Y284C) = biological target: T4, KCNQ2(Y284C) (Rattus norvegicus, UniProt O88943, Y284C); assay: Whole-cell recording of KCNQ2(Y284C) BFNC mutant in CHO cells; format: cell-based; conditions: retigabine
T4 construct: expressed in transfected cells; host or cells: CHO cells, transient
Experimental: as §2, §3
as §1, with “Series resistance compensation was also used and set to 60-80%.” left out

hippocampal neurons = assay: Membrane potential and elicited action potentials of isolated hippocampal neurons; format: cell-based, rat; conditions: 15 μM linopirdine added after 10 μM ZnPy
Experimental: FIG. 10. ZnPy potentiation of native M-current. A. M current recorded from an isolated rat dorsal root ganglion neuron, Vh was −60 mV, stepped to −20 mV, followed by a step to −50 mV, and stepped back to −20 mV. B. Histograms show M-current amplitudes in the presence and absence of 10 μM ZnPy (n=10, * p<0.001). M-current amplitudes were measured by fitting the IM relaxation with an exponential equation. The recording bath solution includes 1 μM TTX, 0.2 mM TEA, 1 mM 4-AP, 50 μM CNQX, and 10 μM bicuculline. C. Membrane potential of an isolated hippocampal neuron was monitored when 10 μM ZnPy was applied in bath solution followed by the addition of 15 μM linopirdine. D. Action potentials elicited by 200 pA current injection to a patched hippocampal neuron. The ZnPy treatments are as indicated.
Neuron Culture—Dorsal root ganglia (DRG) was collected from fourteen-day-old CD rat and incubated in collagenase (sigma, 500 U/ml, 15 min) and then trypsin (Sigma, 1 mg/ml, 30 min) at 37° C. Single DRG neurons were isolated by mechanical trituration with a fire-polished glass Pasteur pipette. Hippocampal tissue was dissected out from CD rat postnatal day 0. The tissue was digested with papain (Worthington Biochem, 20 U/ml, 30 min) and resuspended into single cells. The single-cell suspension was plated onto a monolayer of glial cells that were growing on coated cover slips. Cytosine-1-D-arabinofuranoside at 5 μM was added into the culture medium 24-48 hours later to arrest glial cell proliferation. The culture medium consisted of Neurobasal™ medium with B-27 supplement (Gibco), penicillin/streptomycin and 2 mM L-glutamine. All cells were maintained at 37° C. with 5% CO2 prior to recording.
Electrophysiological Recording—Standard whole-cell recording was used. Pipettes were pulled from borosilicate glass capillaries (TW150-4, World Precision Instruments, Sarasota, Fla.). […] Current and voltage were recorded using an Axopatch-200A amplifier, filtered at 1 kHz and digitized using a DigiData 1322A with pClamp 9.2 software (Axon Instruments, Foster City, Calif.). […]

KCNQ2 [2] = biological target: T1, KCNQ2; assay: Single channel outside-out patch recording of KCNQ2; format: cell-based; set-up: expressed in transfected cells; host or cells: CHO cells; conditions: 50 μM linopirdine
Experimental: For single channel recording procedure, outside-out patch recording was used. The pipettes had resistances of 7-15 MΩ when filled with the intracellular solution of the following composition (mM): KCl 145, MgCl2 1, EGTA 5, HEPES 10, MgATP 5 (pH 7.3). Extracellular solution contained (mM): NaCl 150, KCl 5, CaCl2 2, MgCl2 1, HEPES 10, glucose 10 (pH 7.4). Current and voltage were recorded using an Axopatch-200B amplifier, sample at 4 kHz and filtered at 200 Hz, and digitized using a DigiData 1322A with pClamp 9.2 software (Axon Instruments, Foster City, Calif.).
The open probability (Po) and single channel current (i) were calculated by fitting all-point histograms with single- or multi-Gaussian curves. The ratio of the area under the fitted ‘open’ Gaussian to the total area under the entire Gaussian was taken as Po, and the difference between the fitted “closed” and “open” peaks was taken as i, single channel conductance (γ) was calculated by the equation: γ=i/(V−V5).

[3] = In vivo Geller conflict test for anxiolytics; set-up: species or system rats; conditions: positive control
Experimental: In the Geller conflict test (see, e.g., Geller & Seifter, Psychophamracologia 1:482-492 (1960: Pollard & Howard, Psychopharmacology 62:117-121 (1979)), rats are trained to press a lever to receive food pellets during daily 1 hour sessions. The sessions are divided into punished and unpunished phases. During the four, three-minute punished periods, a light signals that each lever press will produce both a pellet and a foot shock (punishment), which reduces lever pressing. The number of punished lever presses on test days (when test compound is administered) is compared to the mean on baseline days. The positive control, chlordiazepoxide, increases punished lever pressing by >50%. A compound that produces an increase of approximately 40% or greater is generally considered to be of interest as a rapid-onset anxiolytic.
A compound with selective KCNQ1 channel opening activity increases punished responding in a dose-dependent manner. The increase in punished responding is statistically significant (paired t-test p<0.05) at 10, 17, 30, and 56 mg/kg PO with increases of 40% or greater at 30 and 56 mg/kg.

Sequence of TRPM8 (Q7Z2W7 whole entry, species assumed): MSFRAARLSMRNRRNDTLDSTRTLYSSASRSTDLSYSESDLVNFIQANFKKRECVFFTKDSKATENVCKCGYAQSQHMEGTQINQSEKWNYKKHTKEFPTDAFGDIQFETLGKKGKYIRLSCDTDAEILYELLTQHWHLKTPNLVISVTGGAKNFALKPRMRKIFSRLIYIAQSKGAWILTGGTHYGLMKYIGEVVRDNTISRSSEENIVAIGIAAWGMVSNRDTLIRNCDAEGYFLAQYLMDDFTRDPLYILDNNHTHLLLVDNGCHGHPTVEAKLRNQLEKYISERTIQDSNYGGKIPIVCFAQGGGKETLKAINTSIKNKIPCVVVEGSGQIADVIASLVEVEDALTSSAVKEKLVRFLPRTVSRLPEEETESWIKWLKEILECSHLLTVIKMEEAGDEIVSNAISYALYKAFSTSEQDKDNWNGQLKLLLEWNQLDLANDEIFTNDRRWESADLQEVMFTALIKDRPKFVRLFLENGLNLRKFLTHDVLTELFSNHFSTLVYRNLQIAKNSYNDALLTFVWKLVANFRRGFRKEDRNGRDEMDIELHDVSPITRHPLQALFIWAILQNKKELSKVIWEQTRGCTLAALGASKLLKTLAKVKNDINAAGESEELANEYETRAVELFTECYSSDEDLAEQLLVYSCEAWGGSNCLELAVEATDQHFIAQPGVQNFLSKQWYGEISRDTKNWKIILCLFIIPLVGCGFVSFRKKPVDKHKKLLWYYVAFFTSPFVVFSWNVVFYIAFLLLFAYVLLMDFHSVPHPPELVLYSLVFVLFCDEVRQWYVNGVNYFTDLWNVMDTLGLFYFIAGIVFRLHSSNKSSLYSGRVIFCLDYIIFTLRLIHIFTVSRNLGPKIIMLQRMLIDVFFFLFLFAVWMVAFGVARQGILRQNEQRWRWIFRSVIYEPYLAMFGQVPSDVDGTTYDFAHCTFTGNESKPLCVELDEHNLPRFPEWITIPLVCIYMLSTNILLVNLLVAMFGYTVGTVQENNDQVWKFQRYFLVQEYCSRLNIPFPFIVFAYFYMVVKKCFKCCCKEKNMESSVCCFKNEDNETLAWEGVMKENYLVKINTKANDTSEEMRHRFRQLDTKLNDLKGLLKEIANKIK

Q: Which results are given for Oc1ccc(N=Nc2ccccn2)c(O)c1 [PAR, 4-(2)-(pyridylazo) resorcinol]?
A: effect on potentiation induced by sodium pyrithione plus ZnSO4 (KCNQ2 [1]; 100 μM PAR): abolished; effect on KCNQ2 channel activity, compound alone (KCNQ2 [1]; PAR itself): had no effect on KCNQ2 channel activity

Q: For [Zn+2] [Zn^2+], which “effect on KCNQ2 channel, zinc ion alone” value (KCNQ2 [1]) is on record?
A: The value was “cannot induce any detectable effect”.

Q: Which “V1/2 after menthol binding” value (TRPM8) does the source give for CC1CCC(C(C)C)C(O)C1 (centres unmarked) [Menthol] here?
A: The value was −31 mV.

Q: For CC[N+](CC)(CC)CC [TEA, tetraethylammonium], which “effect on KCNQ2 current” value (KCNQ2 [1]) is on record?
A: The value was “completely blocked”.

Q: With CCOC(=O)Nc1ccc(NCc2ccc(F)cc2)cc1N [Retigabine, retigabine] as the compound, how does the current potentiation (KCNQ2(A306T)) read?
A: Its current potentiation is less than 50%.

Q: What about the current potentiation (KCNQ2(R207W)) of the same compound?
A: Its current potentiation is less than 50%.

Q: What about the current potentiation (KCNQ2(Y284C)) of the same compound?
A: The current potentiation was less than 50%.

Q: Which results are given for O=C1N(c2ccccc2)c2ccccc2C1(Cc1ccncc1)Cc1ccncc1 [linopirdine]?
A: effect on ZnPy-induced hyperpolarization (hippocampal neurons): completely abolished the hyperpolarization of membrane potential; effect on KCNQ2 current (KCNQ2 [1]; 30 μM linopirdine, +50 mV): rapid inhibition; effect on single channel activity (KCNQ2 [2]): fully blocked

Q: For [Na+].[O-][n+]1ccccc1[S-] [sodium pyrithione], which “effect on KCNQ2 current amplitude” value (KCNQ2 [1]) is on record?
A: The value was “no change in current amplitude”.

Q: Which “potentiation of KCNQ2 current amplitude by zinc ionophores” value (KCNQ2 [1]; +50 mV) does the source give for Oc1c(I)cc(I)c2cccnc12 [5,7-diiodo-8-hydroxyquinoline] here?
A: Its value is “None displayed any potentiation effect on current amplitude”.

Q: With O=S(=O)([O-])[O-].[Cu+2] [CuSO4] as the compound, how does the “effect on KCNQ2 current amplitude of metal salt added to sodium pyrithione perfusion” value (“effect … to sodium pyrithione perfusion” for short) (KCNQ2 [1]) read?
A: Its value is “did not induce any potentiation”.

Q: For [Cl][Cd][Cl] [CdCl2], which “effect … to sodium pyrithione perfusion” value (KCNQ2 [1]) is on record?
A: The value was “did not induce any potentiation”.

Q: Which “increase of punished lever pressing” value [3] does the source give for CNC1=Nc2ccc(Cl)cc2C(c2ccccc2)=[N+]([O-])C1 [chlordiazepoxide] here?
A: The value was greater than 50%.

Q: With O=S(=O)([O-])[O-].[Zn+2] [ZnSO4] as the compound, how does the “effect … to sodium pyrithione perfusion” value (KCNQ2 [1]) read?
A: The value was “marked increase in current amplitude”.

Source: US20110257146A1, “Method of Treating Kcnq Related Disorders Using Organozinc Compounds” (The johns Hopkins University, priority 2006, published 2011)
